Laboratory results from the supplement of paper PMC10721915.
± gives the standard deviation of the averaged measurements.

Legend:
Assay in all cases: relative cell growth vs untreated control (GI, NCI-DTP normalisation with time-zero) (fraction of control growth); higher = more growth / less inhibition
Settings in all cases: treatment time: 120 h
U87MG = system: U87MG
Protocol: (§1)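 Cancer cell lines in 96-well plates were treated 48 h after seeding with M4076 (ATM inhibitor) and berzosertib (ATR inhibitor), alone or mixed, in 4-fold dilutions for 120 h. Protein was read by sulforhodamine B staining, background-subtracted and normalised NCI-DTP style to untreated control growth. Rows with one concentration equal to 0 are monotherapy.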

WSUNHL = system: WSUNHL
Protocol: as §1

IGROV1 = system: IGROV1
Protocol: as §1

SAOS2 = system: SAOS2
Protocol: as §1

MHHES1 = system: MHHES1
Protocol: as §1

DU145 = system: DU145
Protocol: as §1

MDAMB436 = system: MDAMB436
Protocol: as §1

MIAPACA2 = system: MIAPACA2
Protocol: as §1

A549 = system: A549
Protocol: as §1

HL60 = system: HL60
Protocol: as §1

COc1cc2ncc3c(c2cc1-c1cn(C)nc1C)n(-c1c(F)cncc1OC)c(=O)n3C [M4076] + CNCc1ccc(-c2cc(-c3nc(-c4ccc(S(=O)(=O)C(C)C)cc4)cnc3N)on2)cc1 [berzosertib]
relative cell growth
Settings	A549	DU145	HL60	IGROV1	MDAMB436	MHHES1	MIAPACA2	SAOS2	U87MG	WSUNHL
concentration of first compound 0.0195 µM, concentration of partner 0 M	1.18 ± 0.2	1.09 ± 0.096	1.14 ± 0.11	1.27 ± 0.21	1.1 ± 0.13	1.19 ± 0.12	1.08 ± 0.2	1.16 ± 0.15	1.1 ± 0.11	1.22 ± 0.035
concentration of first compound 0.0195 µM, concentration of partner 0.2 µM	0.64	1.05	1.06	0.543	0.856	0.662	0.643	0.735	0.891	1.48
concentration of first compound 0.0781 µM, concentration of partner 0 M	1.22 ± 0.21	1.12 ± 0.099	1.13 ± 0.1	1.36 ± 0.22	1.15 ± 0.14	1.15 ± 0.12	1.17 ± 0.22	1.14 ± 0.15	1.12 ± 0.11	1.26 ± 0.036
concentration of first compound 0.0781 µM, concentration of partner 0.2 µM	0.574	1.09	1.12	0.527	0.625	0.505	0.542	0.657	0.839	1.47
concentration of first compound 0.313 µM, concentration of partner 0 M	1.16 ± 0.2	1.11 ± 0.098	1.03 ± 0.096	1.18 ± 0.19	0.941 ± 0.11	1.05 ± 0.11	1.03 ± 0.19	1.05 ± 0.14	1.09 ± 0.11	0.983 ± 0.028
concentration of first compound 0.313 µM, concentration of partner 0.2 µM	0.267	0.774	0.788	0.376	0.374	0.17	0.269	0.319	0.682	1.07
concentration of first compound 1 µM, concentration of partner 0 M	0.924	0.98	0.862	0.9	0.753	0.809	1.08	0.782	0.966	0.649
concentration of first compound 1 µM, concentration of partner 0.0195 µM	0.89	0.893	0.88	0.964	0.817	0.753	0.891	0.871	0.944	0.896
concentration of first compound 1 µM, concentration of partner 0.0781 µM	0.431	0.862	0.707	0.604	0.574	0.224	0.439	0.482	0.82	0.716
concentration of first compound 1 µM, concentration of partner 0.313 µM	0.0877	0.133	0.0883	0.0905	0.148	0.0239	0.061	0.119	0.343	-0.00911
concentration of first compound 1 µM, concentration of partner 1.25 µM	0.00284	-0.0604	0.00814	-0.0208	-0.0222	-0.0145	0.0345	-0.0926	0.0996	-0.0958
concentration of first compound 1 µM, concentration of partner 5 µM	0.00285	-0.0855	-0.0212	-0.0274	-0.02	-0.0266	-0.0126	-0.1	0.134	-0.11
concentration of first compound 1.25 µM, concentration of partner 0 M	1.09 ± 0.19	1.05 ± 0.092	0.958 ± 0.089	1.02 ± 0.17	0.84 ± 0.1	0.97 ± 0.1	1.18 ± 0.22	0.871 ± 0.11	1.01 ± 0.1	0.572 ± 0.016
concentration of first compound 1.25 µM, concentration of partner 0.2 µM	0.153	0.496	0.344	0.327	0.292	0.0696	0.126	0.146	0.505	0.294
concentration of first compound 5 µM, concentration of partner 0 M	0.955 ± 0.16	0.872 ± 0.077	0.746 ± 0.07	0.48 ± 0.079	0.684 ± 0.083	0.65 ± 0.067	1.09 ± 0.2	0.652 ± 0.084	0.853 ± 0.085	0.166 ± 0.0046
concentration of first compound 5 µM, concentration of partner 0.2 µM	0.11	0.307	0.207	0.0986	0.206	0.05	0.157	0.113	0.381	0.0497

CNCc1ccc(-c2cc(-c3nc(-c4ccc(S(=O)(=O)C(C)C)cc4)cnc3N)on2)cc1 [berzosertib] + COc1cc2ncc3c(c2cc1-c1cn(C)nc1C)n(-c1c(F)cncc1OC)c(=O)n3C [M4076]
relative cell growth, concentration of partner 0 M
Settings	A549	DU145	HL60	IGROV1	MDAMB436	MHHES1	MIAPACA2	SAOS2	U87MG	WSUNHL
concentration of first compound 0.0195 µM	1.22 ± 0.22	1.08 ± 0.096	1.14 ± 0.12	1.15 ± 0.21	1.03 ± 0.13	1.26 ± 0.15	1.06 ± 0.2	1.16 ± 0.16	1.09 ± 0.12	1.44 ± 0.031
concentration of first compound 0.0781 µM	0.999 ± 0.18	1.13 ± 0.1	1.1 ± 0.12	1.01 ± 0.18	1.13 ± 0.14	1.21 ± 0.15	0.974 ± 0.19	1.11 ± 0.15	1.07 ± 0.12	1.68 ± 0.036
concentration of first compound 0.2 µM	0.464	1.03	0.809	0.468	0.673	0.599	0.661	0.645	0.8	1.18
concentration of first compound 0.313 µM	0.294 ± 0.053	0.825 ± 0.073	0.53 ± 0.056	0.129 ± 0.023	0.386 ± 0.049	0.436 ± 0.052	0.235 ± 0.045	0.559 ± 0.076	0.677 ± 0.075	0.779 ± 0.017
concentration of first compound 1.25 µM	0.0316 ± 0.0058	-0.0103 ± 0.0009	0.0485 ± 0.0051	-0.0355 ± 0.0062	0.0232 ± 0.0032	0.0564 ± 0.0069	0.0129 ± 0.0026	0.0446 ± 0.006	0.185 ± 0.021	-0.0504 ± 0.001
concentration of first compound 5 µM	-0.00795 ± 0.0013	-0.0587 ± 0.0052	-0.0133 ± 0.0014	-0.0657 ± 0.012	-0.0352 ± 0.0043	-0.0244 ± 0.0028	-0.0366 ± 0.0069	-0.116 ± 0.016	0.195 ± 0.022	-0.0908 ± 0.0019
